Measured values published in patent publication US8420311B2, “Method to block the infection by flaviviruses, molecules and uses” (Centro de Ingenieria Genetica y Biotecnologia, priority 2006, dated 2013).
Where a SMILES comes first, the peptide text is derived from it. Bridges are numbered along the chain shown (N, C = ends). Where no end group is shown, it is not given here.

B1: A2M: human Alfa 2-macroglobulin purified from human plasma, Seq. ID. 2 (protein, listed as Homo sapiens)
chain: MGKNKLLHPSLVLLLLVLLPTDASVSGKPQYMVLVPSLLHTETTEKGCVLLSYLNETVTVSASLESVRGNRSLFTDLEAENDVLHCVAFAVPKSSSNEEVMFLTVQVKGPTQEFKKRTTVMVKNEDSLVFVQTDKSIYKPGQTVKFRVVSMDENFHPLNELIPLVYIQDPKGNRIAQWQSFQLEGGLKQFSFPLSSEPFQGSYKVVVQKKSGGRTEHPFTVEEFVLPKFEVQVTVPKIITILEEEMNVSVCGLYTYGKPVPGHVTVSICRKYSDASDCHGEDSQAFCEKFSGQLNSHGCFYQQVKTKVFQLKRKEYEMKLHTEAQIQEEGTVVELTGRQSSEITRTITKLSFVKVDSHFRQGIPFFGQVRLVDGKGVPIPNKVIFIRGNEANYYSNATTDEHGLVQFSINTTNVMGTSLTVRVNYKDRSPCYGYQWVSEEHEEAHHTAYLVFSPSKSFVHLEPMSHELPCGHTQTVQAHYILNGGTLLGLKKLSFYYLIMAKGGIVRTGTHGLLVKQEDMKGHFSISIPVKSDIAPVARLLIYAVLPTGDVIGDSAKYDVENCLANKVDLSFSPSQSLPASHAHLRVTAAPQSVCALRAVDQSVLLMKPDAELSASSVYNLLPEKDLTGFPGPLNDQDDEDCINRHNVYINGITYTPVSSTNEKDMYSFLEDMGLKAFTNSKIRKPKMCPQLQQYEMHGPEGLRVGFYESDVMGRGHARLVHVEEPHTETVRKYFPETWIWDLVVVNSAGVAEVGVTVPDTITEWKAGAFCLSEDAGLGISSTASLRAFQPFFVELTMPYSVIRGEAFTLKATVLNYLPKCIRVSVQLEASPAFLAVPVEKEQAPHCICANGRQTVSWAVTPKSLGNVNFTVSAEALESQELCGTEVPSVPEHGRKDTVIKPLLVEPEGLEKETTFNSLLCPSGGEVSEELSLKLPPNVVEESARASVSVLGDILGSAMQNTQNLLQMPYGCGEQNMVLFAPNIYVLDYLNETQQLTPEVKSKAIGYLNTGYQRQLNYKHYDGSYSTFGERYGRNQGNTWLTAFVLKTFAQARAYIFIDEAHITQALIWLSQRQKDNGCFRSSGSLLNNAIKGGVEDEVTLSAYITIALLEIPLTVTHPVVRNALFCLESAWKTAQEGDHGSHVYTKALLAYAFALAGNQDKRKEVLKSLNEEAVKKDNSVHWERPQKPKAPVGHFYEPQAPSAEVEMTSYVLLAYLTAQPAPTSEDLTSATNIVKWITKQQNAQGGFSSTQDTVVALHALSKYGAATFTRTGKAAQVTIQSSGTFSSKFQVDNNNRLLLQQVSLPELPGEYSMKVTGEGCVYLQTSLKYNILPEKEEFPFALGVQTLPQTCDEPKAHTSFQISLSVSYTGSRSASNMAIVDVKMVSGFIPLKPTVKMLERSNHVSRTEVSSNHVLIYLDKVSNQTLSLFFTVLQDVPVRDLKPAIVKVYDYYETDEFAIAEYNAPCSKDLGNA

Assays:
DV2 = format: cell-based, dengue virus; settings: peptides 0.1 mg/ml; Vero cells
Description: (§1) FIG. 17. Inhibition of the infection of Vero cells with DV1 and DV2. (A) Six-well plates with a monolayer at approximately 90% confluence were incubated for 30 min. at 37° C. with dilutions of the peptides in MEM medium. A dilution of either DV1 strain West Pac 74 or DV2 strain S16803 was then added, calculated so as to obtain an average of 100 lytic plaques per well, and the plates were incubated for 30 min. at 37° C. with the virus/peptide mixture. After the incubation the cells were washed twice, received the addition of MEM medium supplemented with non-essential amino acids, 1% fetal calf serum, 1% CMC, and finally were incubated for 5 days at 37° C. under a CO2 atmosphere. (B) Inhibitory effect of the peptides at 100 μMol/L. NRpep: Non-related peptide. Data on the sequence of the peptides 3H5pept (SEQ ID. 27), pepDIII-1 (SEQ ID. 28), HIII2CL (SEQ ID. 5) and HIII3CL (SEQ ID. 7), as well as on the region they span on DIII from DV, can be obtained from FIG. 11. The calculation of the inhibition percentages is described in Materials and Methods. (C) Inhibition of DV2 infection by using varying peptide concentrations. The viral plaques were visualized by staining with Naphtol Blue Black. Cell control: Untreated cells. Virus control: Cells incubated with the virus, but without peptide.
(§2) DIII has one of the most variable regions of the exposed surface of protein E. In fact, one of the antigenic characteristics of this domain is that the antibodies obtained against this region are predominantly serotype-specific (Roehrig J T, Bolin R A, Kelly R G (1998) Monoclonal antibody mapping of the envelope glycoprotein of the dengue 2 virus, Jamaica Virology 246:317-28). However, during the inhibition assay with different DV serotypes, the peptides display a wide-spectrum inhibitory activity, efficiently inhibiting the infection of strains of the homologous, as well as of the heterologous serotypes (table 3). It is important to notice that at the assayed concentration (0.1 mg/ml) all the peptides in all the conditions, with the exception of peptide HIII4CL for DV3, produced higher than 50% inhibition levels.

DV1 = format: cell-based, dengue virus; settings: peptides 0.1 mg/ml; Vero cells
Description: as §1, §2

DV3 = format: cell-based, dengue virus; settings: for degree of reduction of the number of viral plaques, DV3: peptides 0.1 mg/ml, Vero cells
Source text: as §2

DV4 = format: cell-based, dengue virus; settings: peptides 0.1 mg/ml; Vero cells
Source text: as §2

[1] = molecular target: T1, DIIIE2J (DIII from protein E of DV2) (Dengue virus type 2, UniProt P07564); experiment: Direct binding between DIIIE2J and A2M measured by Biacore; design: species or system DV2 strain Jamaica 1409; settings: A2M 0.3 to 3 μMol/L
T1 construct: made in house; host or cells: Escherichia coli BL21(DE3)
T1 sequence (P07564 568-687, looked up, natural form): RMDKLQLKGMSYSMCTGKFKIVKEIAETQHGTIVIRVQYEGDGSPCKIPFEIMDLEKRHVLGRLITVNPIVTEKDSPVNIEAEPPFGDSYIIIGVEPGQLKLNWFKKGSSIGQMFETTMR
Description: FIG. 6. Direct binding between DIIIE2J and A2M, measured by Biacore. Response curves obtained during and after the injection of (B) Monoclonal antibodies against DV serotype 2 (3H5) and against all FV (4G2); (C) Polyclonal mouse antibody preparations obtained by immunization with DV1 and DV2, including pre-immune sera and (D) A2M dilutions, at concentrations from 0.3 μMol/L to 3 μMol/L. The run was performed on PBS pH 7.4 at 25° C. The different A2M dilutions were loaded at a flow of 5 μL/min for 20 min. The response is represented in resonance units (RU) corrected for unspecific binding using the response from the channel without immobilized protein (less than 5% of the specific signal).
A cm5 chip (Biacore, Sweden) was used for the covalent immobilization of the DIIIE2J and LRP1 proteins. The immobilization was carried out at 25° C., with a flow of 5 μL/min and using HBS (Biacore, Sweden) as running buffer. The surface of the chip was activated by loading 35 μL of 0.2 Mol/L […] (EDC) and 0.05 Mol/L N-hydroxysuccinimide (NHS). Afterwards the proteins, dissolved in 10 mM sodium acetate buffer pH 4.5, were loaded into the system. At the end of the immobilization, 35 μL of 1 M ethanolamine pH 8 were loaded into the system in order to block any remaining free activated groups. The channel to be used as a negative control in each case received only the activating injections with the EDC:NHS solution and the blocking with ethanolamine, employing the same flow and injection volume. The results were analyzed using the BIAevaluation ver. 4.1 software application package (Biacore, Sweden).
In order to estimate the strength of the interaction between DIIIE2J and human A2M, 1600 RU of DIIIE2J were covalently immobilized on a CM5 chip (channel 1, FIG. 6A) (Biacore, Sweden), following the procedure described in the Materials and Methods section. […]

Row | Molecule | degree of reduction of the number of viral plaques, DV2 (DV2) | degree of reduction of the number of viral plaques, DV1 (DV1) | degree of reduction of the number of viral plaques, DV3 (DV3) | degree of reduction of the number of viral plaques, DV4 (DV4) | inhibition level, DV3 (DV3; 0.1 mg/ml) [%] | nature of the interaction between both proteins [1] | Kd ([1]; immobilized DIIIE2J, PBS pH 7.4 at 25° C., read-out: apparent Kd) [nM]
1 | HDIII1CL: cyclic synthetic peptide based on the FG beta hairpin of DIII of protein E from DV1, SEQ ID. 6 (CSYIVVGAGEKALKLSWC-NH2; disulfide 1-18 (inferred)) | + (50% or higher decrease) | + (50% or higher decrease) | + (50% or higher decrease) | + (50% or higher decrease) | – | – | –
2 | CC[C@H](C)[C@@H]1NC(=O)[C@H](Cc2ccc(O)cc2)NC(=O)[C@H](CO)NC(=O)[C@@H](N)CSSC[C@@H](C(N)=O)NC(=O)[C@H](Cc2c[nH]c3ccccc23)NC(=O)[C@H](Cc2c[nH]cn2)NC(=O)[C@H](CC(C)C)NC(=O)[C@H]([C@@H](C)O)NC(=O)[C@H](CC(C)C)NC(=O)[C@H](C)NC(=O)[C@H](CO)NC(=O)[C@H](CC(N)=O)NC(=O)CNC(=O)[C@H](C(C)C)NC(=O)CNC(=O)[C@H]([C@@H](C)CC)NC(=O)[C@H](C(C)C)NC1=O [HDIII4CL] (H-CSYIVIGVGNSALTLHWC-NH2; disulfide 1-18; N-terminus assumed) | + (50% or higher decrease) | + (50% or higher decrease) | +/− (10-50% decrease in the number of plaques) | + (50% or higher decrease) | ≤ 50 | – | –
3 | B1 | – | – | – | – | – | saturable and reversible | ~100
